According to PubChem BioAssay AID248 (DTP/NCI, 2004):
Several values for one entry are separate records, joined by “and”; a condition that tells them apart may be missing. Identical values can stand only once. Inconclusive results and toxic doses are left out. Rule as the data show it: active = T/C of 150% or more; inactive = T/C below 125%.

Test system: L1210 leukemia ip in BDF1 mice, survival T/C
Assay: NCI In Vivo Anticancer Drug Screen. Data for tumor model L1210 Leukemia (intraperitoneal) in B6D2F1 (BDF1) mice
Conditions: higher = longer survival
Method in brief: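 Mice bearing the transplanted tumor received compound or vehicle. Survival of the treated group was divided by that of the vehicle-treated control group to give the ratio.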

[1] = endpoint: mean survival time, dose: 100.0 mg/kg/injection, schedule: Q04DX002 (ip), vehicle: saline
[2] = endpoint: mean survival time, dose: 200.0 mg/kg/injection, schedule: Q04DX002 (ip), vehicle: saline
[3] = endpoint: mean survival time, dose: 100.0 mg/kg/injection, schedule: Q04DX003 (ip), vehicle: saline with Tween-80
[4] = endpoint: mean survival time, dose: 400.0 mg/kg/injection, schedule: Q04DX003 (ip), vehicle: saline with Tween-80
[5] = endpoint: mean survival time, dose: 100.0 mg/kg/injection, schedule: Q04DX002 (ip), vehicle: Klucel (hydroxypropylcellulose) (HPC)
[6] = endpoint: mean survival time, dose: 200.0 mg/kg/injection, schedule: Q04DX002 (ip), vehicle: Klucel (hydroxypropylcellulose) (HPC)
[7] = endpoint: mean survival time, dose: 400.0 mg/kg/injection, schedule: Q04DX002 (ip), vehicle: Klucel (hydroxypropylcellulose) (HPC)
[8] = endpoint: mean survival time, dose: 50.0 mg/kg/injection, schedule: Q01DX009 (ip), vehicle: Klucel (hydroxypropylcellulose) (HPC)
[9] = endpoint: mean survival time, dose: 100.0 mg/kg/injection, schedule: Q01DX009 (ip), vehicle: Klucel (hydroxypropylcellulose) (HPC)
[10] = endpoint: mean survival time, dose: 25.0 mg/kg/injection, schedule: Q01DX009 (ip), vehicle: Klucel (hydroxypropylcellulose) (HPC)
[11] = endpoint: mean survival time, dose: 50.0 mg/kg/injection, schedule: Q04DX002 (ip), vehicle: Klucel (hydroxypropylcellulose) (HPC)
[12] = endpoint: mean survival time, dose: 200.0 mg/kg/injection, schedule: Q01DX009 (ip), vehicle: Klucel (hydroxypropylcellulose) (HPC)
[13] = endpoint: mean survival time, dose: 100.0 mg/kg/injection, schedule: Q01DX001 (ip), vehicle: carboxymethylcellulose (CMC)
[14] = endpoint: mean survival time, dose: 200.0 mg/kg/injection, schedule: Q01DX001 (ip), vehicle: carboxymethylcellulose (CMC)
[15] = endpoint: mean survival time, dose: 400.0 mg/kg/injection, schedule: Q01DX001 (ip), vehicle: carboxymethylcellulose (CMC)

Measured: T/C

CC(C)(SCc1ccccc1)C(N)C(=O)O (centres undefined)
inactive: endpoint: mean survival time, dose: 75.0 mg/kg/injection, schedule: Q01DX001 (ip), vehicle: saline 104 % of control | endpoint: mean survival time, dose: 100.0 mg/kg/injection, schedule: Q01DX009 (ip), vehicle: saline 91 % of control | endpoint: mean survival time, dose: 100.0 mg/kg/injection, schedule: Q04DX003 (ip), vehicle: saline 105 % of control | endpoint: mean survival time, dose: 150.0 mg/kg/injection, schedule: Q01DX001 (ip), vehicle: saline 98 % of control | endpoint: mean survival time, dose: 200.0 mg/kg/injection, schedule: Q01DX009 (ip), vehicle: saline 98 % of control | endpoint: mean survival time, dose: 200.0 mg/kg/injection, schedule: Q04DX003 (ip), vehicle: saline 102 % of control | endpoint: mean survival time, dose: 400.0 mg/kg/injection, schedule: Q01DX009 (ip), vehicle: saline 91 % of control | endpoint: mean survival time, dose: 400.0 mg/kg/injection, schedule: Q04DX003 (ip), vehicle: saline 97 % of control

CCN=C(N)C(C)SS(=O)(=O)O (centres undefined)
inactive: [1] 106 % of control | [2] 98 % of control

Cc1cccc(OCC2CO2)c1 (centres undefined)
inactive: [1] 87 % of control | [2] 102 % of control | endpoint: mean survival time, dose: 400.0 mg/kg/injection, schedule: Q04DX002 (ip), vehicle: saline 105 % of control

Cc1ccc(S(=O)(=O)OC2C(C)C3C2S(=O)(=O)C3(C)C)cc1 (centres undefined)
inactive: [3] 102 % of control | endpoint: mean survival time, dose: 200.0 mg/kg/injection, schedule: Q04DX003 (ip), vehicle: saline with Tween-80 104 % of control | [4] 102 % of control

CCOC(=O)c1c(-c2ccc([N+](=O)[O-])cc2)c(C#N)n(-c2ccccc2)c1C
inactive: [5] 95 % of control | [6] 92 % of control | [7] 103 % of control

O=C(O)c1ccc(OC(F)(F)C(F)Cl)cc1 (centres undefined)
inactive: [8] 100 % of control | [9] 98 % of control

CC(=O)NC(CCc1ccc(Cl)c(Cl)c1)c1cccc(O)c(=O)c1 (centres undefined)
inactive: endpoint: median survival time, dose: 50.0 mg/kg/injection, schedule: Q01DX009 (ip), vehicle: Klucel (hydroxypropylcellulose) (HPC) 118 % of control | endpoint: median survival time, dose: 100.0 mg/kg/injection, schedule: Q01DX009 (ip), vehicle: Klucel (hydroxypropylcellulose) (HPC) 118 % of control

O=C1CCC(=O)N1c1ccc(Cl)cc1
inactive: endpoint: mean survival time, dose: 12.5 mg/kg/injection, schedule: Q01DX009 (ip), vehicle: Klucel (hydroxypropylcellulose) (HPC) 107 % of control | [10] 98 % of control | [8] 101 % of control

CN(C)c1ncnc2c1c(Br)cn2C1OC(CO)C(O)C1O (centres undefined)
inactive: endpoint: mean survival time, dose: 5.0 mg/kg/injection, schedule: Q01DX001 (ip), vehicle: saline 101 % of control | endpoint: mean survival time, dose: 10.0 mg/kg/injection, schedule: Q01DX001 (ip), vehicle: saline 102 % of control | endpoint: mean survival time, dose: 20.0 mg/kg/injection, schedule: Q01DX001 (ip), vehicle: saline 104 % of control | endpoint: mean survival time, dose: 40.0 mg/kg/injection, schedule: Q01DX001 (ip), vehicle: saline 108 % of control

O=C1CC2CCCCC2c2ccccc21 (centres undefined)
inactive: endpoint: mean survival time, dose: 12.5 mg/kg/injection, schedule: Q01DX001 (ip), vehicle: saline 114 % of control | endpoint: mean survival time, dose: 25.0 mg/kg/injection, schedule: Q01DX001 (ip), vehicle: saline 102 % of control | endpoint: mean survival time, dose: 50.0 mg/kg/injection, schedule: Q01DX001 (ip), vehicle: saline 100 % of control

NC1CCC2CCCCC2C1 (centres undefined)
inactive: [10] 101 % of control | endpoint: mean survival time, dose: 25.0 mg/kg/injection, schedule: Q04DX003 (ip), vehicle: Klucel (hydroxypropylcellulose) (HPC) 95 % of control | [8] 93 % of control | endpoint: mean survival time, dose: 50.0 mg/kg/injection, schedule: Q04DX003 (ip), vehicle: Klucel (hydroxypropylcellulose) (HPC) 100 % of control | [9] 98 % of control | endpoint: mean survival time, dose: 100.0 mg/kg/injection, schedule: Q04DX003 (ip), vehicle: Klucel (hydroxypropylcellulose) (HPC) 94 % of control

Cc1ccc2nc3c4ccccc4scc-3c2c1
inactive: endpoint: mean survival time, dose: 100.0 mg/kg/injection, schedule: Q04DX003 (ip), vehicle: acetone 93 % of control

CC(=O)Oc1c(-c2ccccc2)cc([N+](=O)[O-])cc1[N+](=O)[O-]
inactive: [11] 97 % of control | [5] 103 % of control | [6] 94 % of control

O=[N+]([O-])C1C=NCCN=C1
inactive: endpoint: mean survival time, dose: 100.0 mg/kg/injection, schedule: Q04DX013 (ip), vehicle: carboxymethylcellulose (CMC) 96 % of control | endpoint: mean survival time, dose: 200.0 mg/kg/injection, schedule: Q04DX013 (ip), vehicle: carboxymethylcellulose (CMC) 94 % of control | endpoint: mean survival time, dose: 400.0 mg/kg/injection, schedule: Q04DX013 (ip), vehicle: carboxymethylcellulose (CMC) 94 % of control

CCc1oc2cc([N+](=O)[O-])ccc2c1C#N
inactive: endpoint: mean survival time, dose: 25.0 mg/kg/injection, schedule: Q04DX002 (ip), vehicle: Klucel (hydroxypropylcellulose) (HPC) 86 % of control | [11] 89 % of control | [9] 97 % of control | [5] 93 % of control | [12] 101 % of control | endpoint: mean survival time, dose: 400.0 mg/kg/injection, schedule: Q01DX009 (ip), vehicle: Klucel (hydroxypropylcellulose) (HPC) 97 % of control

CC(C)c1nc(CO)c(CO)n1Cc1ccccc1
inactive: [13] 106 % of control | endpoint: mean survival time, dose: 100.0 mg/kg/injection, schedule: Q01DX009 (ip), vehicle: carboxymethylcellulose (CMC) 93 % of control and 109 % of control | [5] 112 % of control | endpoint: mean survival time, dose: 100.0 mg/kg/injection, schedule: Q04DX002 (ip), vehicle: carboxymethylcellulose (CMC) 93 % of control and 111 % of control | [14] 108 % of control | endpoint: mean survival time, dose: 200.0 mg/kg/injection, schedule: Q01DX009 (ip), vehicle: carboxymethylcellulose (CMC) 106 % of control and 91 % of control | [6] 102 % of control | endpoint: mean survival time, dose: 200.0 mg/kg/injection, schedule: Q04DX002 (ip), vehicle: carboxymethylcellulose (CMC) 105 % of control and 88 % of control | [15] 108 % of control | endpoint: mean survival time, dose: 400.0 mg/kg/injection, schedule: Q01DX009 (ip), vehicle: carboxymethylcellulose (CMC) 106 % of control and 91 % of control | [7] 102 % of control | endpoint: mean survival time, dose: 400.0 mg/kg/injection, schedule: Q04DX002 (ip), vehicle: carboxymethylcellulose (CMC) 97 % of control and 90 % of control

COC(=O)c1cc(-c2ccc(Cl)cc2)nc2c(C)cc(C)cc12
inactive: [13] 92 % of control | [14] 101 % of control | [15] 89 % of control

c1ccc2c(c1)NC(OC1CCCCC1)S2 (centres undefined)
inactive: endpoint: mean survival time, dose: 100.0 mg/kg/injection, schedule: Q04DX002 (ip), vehicle: saline with Tween-80 101 % of control | endpoint: mean survival time, dose: 200.0 mg/kg/injection, schedule: Q04DX002 (ip), vehicle: saline with Tween-80 90 % of control | endpoint: mean survival time, dose: 400.0 mg/kg/injection, schedule: Q04DX002 (ip), vehicle: saline with Tween-80 90 % of control

O=C(O)c1ccccc1N=Cc1ccc(N(CCCl)CCCl)cc1
inactive: endpoint: mean survival time, dose: 50.0 mg/kg/injection, schedule: Q01DX001 (ip), vehicle: carboxymethylcellulose (CMC) 103 % of control | [13] 122 % of control | [14] 114 % of control | [15] 111 % of control

Cc1ccc(NC(=O)Nc2cccc(C(F)(F)F)c2)cc1NC(=O)Nc1cccc(C(F)(F)F)c1
inactive: [3] 93 % of control | endpoint: mean survival time, dose: 200.0 mg/kg/injection, schedule: Q01DX009 (ip), vehicle: saline with Tween-80 92 % of control | endpoint: mean survival time, dose: 400.0 mg/kg/injection, schedule: Q01DX009 (ip), vehicle: saline with Tween-80 103 % of control | [4] 88 % of control

CCN(CCS)Cc1ccccc1
inactive: endpoint: mean survival time, dose: 25.0 mg/kg/injection, schedule: Q01DX009 (ip), vehicle: saline with Tween-80 95 % of control | endpoint: mean survival time, dose: 25.0 mg/kg/injection, schedule: Q04DX003 (ip), vehicle: saline with Tween-80 94 % of control | endpoint: mean survival time, dose: 50.0 mg/kg/injection, schedule: Q01DX009 (ip), vehicle: saline with Tween-80 97 % of control | endpoint: mean survival time, dose: 50.0 mg/kg/injection, schedule: Q04DX003 (ip), vehicle: saline with Tween-80 91 % of control | endpoint: mean survival time, dose: 100.0 mg/kg/injection, schedule: Q01DX009 (ip), vehicle: saline with Tween-80 95 % of control | [3] 91 % of control

O=C(O)CC(NCc1ccccc1)C1CCCCC1 (centres undefined)
inactive: endpoint: mean survival time, dose: 100.0 mg/kg/injection, schedule: Q01DX001 (ip), vehicle: Klucel (hydroxypropylcellulose) (HPC) 95 % of control | endpoint: mean survival time, dose: 200.0 mg/kg/injection, schedule: Q01DX001 (ip), vehicle: Klucel (hydroxypropylcellulose) (HPC) 101 % of control | endpoint: mean survival time, dose: 400.0 mg/kg/injection, schedule: Q01DX001 (ip), vehicle: Klucel (hydroxypropylcellulose) (HPC) 98 % of control

O=C(O)/C=C/C(=O)Nc1ccc([N+](=O)[O-])c(C(F)(F)F)c1
inactive: [9] 107 % of control | [12] 112 % of control
